How the values were obtained:
gel matrix = experiment: Gel matrix contraction in a culture system; type: cell-based
cell modulus = settings: Wu, H. W. et al., Scanning, 1998; cited from earlier work
elastin = experiment: Gene expression in BATs by quantitative RT-PCR; type: cell-based, human
Protocol: (§1) Primary human tendon internal fibroblasts (HTIFs) were isolated from discarded human tendon tissue as described previously (Banes et al., J. Ortho Res., 6, 73-82, 1988). HTIFs from passage 2 to 4 were used in this study. BATs™ were fabricated at a cell density of 2 million cells/ml collagen gel suspension (Vitrogen). Cells were incubated at 37° C. for 24 h before addition of 100 pM IL-1β and inhibitors. BAT™ images were recorded with a scanner and automated imaging software, ScanFlex™ (Flexcell International Corp.). Medium was refreshed every 24 h. On day 5, BATs™ were collected, total RNA extracted with an RNeasy mini kit (QIAGen), cDNA synthesized with SuperScriptII (Invitrogen) and quantitative PCR carried out using a quantitative PCR kit from Ambion. The PCR products were separated on 2% agarose gels and the bands were quantitated in Photoshop. The elasticity of BATs™ was tested on day 5. BATs™ were subjected to a maximum stretch (20% elongation, 1 Hz for 1 h) and the BAT images were recorded for 24 h after stretch.

[1] = system: human tendon internal fibroblast (HTIF)-populated bioartificial tendons (BATs™); experiment: Elasticity of BATs by length recovery after maximum stretch; type: cell-based; settings: 100 pM IL-1β
Description: In order to find a better therapeutic method for tendon/ligament repair and/or replacement, several in vitro models for engineered tendon have been developed recently (Awad et al., J. Biomed. Mater Res., 51(2), 233-240, 2000). One of them is a BioArtificial Tendon (BAT™) model system utilizing tenocyte-populated molded collagen gels (Awad et al., J. Biomed. Mater Res., 51(2), 233-240, 2000). This 3D BAT™ system allows the testing of tenocyte responses to drugs, cytokines and mechanical loading but is too weak to replace conventional grafts materials. In an attempt to modulate the material properties of the cell-gel composite, the influence of IL-1β on the elasticity of human tendon internal fibroblast (HTIF)-populated bioartificial tendons (BATs™) was investigated. IL-1β has been reported to increase the expression of matrix metalloproteinases (MMPs) and elastin. It was hypothesized that IL-1β might increase the elasticity of BATs™ by up-regulating the expression of elastin and down-regulating matrix protein (Collagen I) expression. Gene expression was quantified with quantitative RT-PCR. The elasticity of BATs™ was determined by length recovery after stretch. The influence of IL-1β on the actin cytoskeleton and integrin attachment to matrix in BATs™ was tested +/− cytochalasin D or GRGDTP, respectively.
as §1, with “BATs™ were fabricated at a cell density of 2 million cells/ml collagen gel suspension (Vitrogen). Cells were incubated at 37° C. for 24 h before addition of 100 pM IL-1β and inhibitors.” left out, “Medium was refreshed every 24 h.” left out, “The elasticity of BATs™ was tested on day 5.” left out

MMPs 1, 2, 3 = experiment: Gene expression in BATs by quantitative RT-PCR; type: cell-based, human; settings: 100 pM IL-1β, day 5
Protocol: as §1

Collagen I = experiment: Gene expression in BATs by quantitative RT-PCR; type: cell-based, human; settings: 100 pM IL-1β, day 5
Protocol: as §1

[2] = system: human tendon internal fibroblast (HTIF) populated bioartificial tendons (BATs™); experiment: Material properties (modulus) of BATs; type: cell-based; settings: IL-1β treated BATs
β-actin [3] = experiment: β-actin expression by quantitative RT-PCR; type: cell-based, human; settings: 100 pM IL-1β; for reduction of β-actin message: 24 h post addition
Protocol: Primary HTIFs were isolated after surgery from discarded human tendon tissue as described previously (Banes et al., J. Ortho Res., 6, 73-82, 1988). HTIFs from passage 2 to 4 were used in this study. HTIFs were allowed to attach and spread for 24 h before addition of 100 pM IL-1β. Medium was refreshed every 24 h. […] Young's modulus of HTIFs was measured by aspirating a cell into the bore of a calibrated micropipette with a calibrated vacuum source. The cell-aspiration process was videotaped for subsequent data analysis to calculate the pipette bore size, the steady state pressure required to aspirate a segment of a cell into the pipette bore and the time constant for aspiration. Cytoskeleton change was monitored by rhodamine-phalloidin staining. The expression levels of β-actin was determined by quantitative RT-PCR. Total RNA was extracted with an RNeasy mini kit (QIAGen), cDNA was synthesized with SuperScriptII (Invitrogen) and quantitative PCR was carried out using 18S rRNA as an internal control (Ambion). The PCR products were separated on 2% agarose gels and pixel intensity of the bands was quantitated in Photoshop.

[4] = system: human tendon internal fibroblasts (HTIFs); experiment: Young's modulus of HTIFs by micropipette aspiration; type: cell-based; settings: 100 pM IL-1β, day 5
Protocol: Primary HTIFs were isolated after surgery from discarded human tendon tissue as described previously (Banes et al., J. Ortho Res., 6, 73-82, 1988). HTIFs from passage 2 to 4 were used in this study. HTIFs were allowed to attach and spread for 24 h before addition of 100 pM IL-1β. Medium was refreshed every 24 h. On day 5, cells were collected for cell modulus measurement and gene expression analysis. Young's modulus of HTIFs was measured by aspirating a cell into the bore of a calibrated micropipette with a calibrated vacuum source. The cell-aspiration process was videotaped for subsequent data analysis to calculate the pipette bore size, the steady state pressure required to aspirate a segment of a cell into the pipette bore and the time constant for aspiration. Cytoskeleton change was monitored by rhodamine-phalloidin staining. The expression levels of β-actin was determined by quantitative RT-PCR. Total RNA was extracted with an RNeasy mini kit (QIAGen), cDNA was synthesized with SuperScriptII (Invitrogen) and quantitative PCR was carried out using 18S rRNA as an internal control (Ambion). The PCR products were separated on 2% agarose gels and pixel intensity of the bands was quantitated in Photoshop.

β-actin [5] = experiment: Cytoskeleton change by rhodamine-phalloidin staining; type: cell-based, human; settings: 100 pM IL-1β
[6] = system: human tendon internal fibroblast (HTIF)-populated bioartificial tendons (BATs™); experiment: Contraction of HTIF-populated BATs (scanner imaging); type: cell-based; settings: 100 pM IL-1β; 24 h post addition
Protocol: as §1

Nc1ncnc2c1ncn2[C@@H]1O[C@H](COP(=O)(O)OP(=O)(O)OP(=O)(O)O)[C@@H](O)[C@H]1O [ATP, adenosine triphosphate]
gel matrix contraction (gel matrix): retard gel matrix contraction

C=C1[C@@H](C)[C@H]2[C@H](Cc3ccccc3)NC(=O)[C@]23[C@H](OC(C)=O)/C=C/[C@@](C)(O)C(=O)[C@@H](C)C/C=C/[C@H]3[C@@H]1O [cytochalasin D]
cell modulus (cell modulus): decreased cell modulus by up to three fold

GRGDTP
stimulation of elastin mRNA by IL-1β (elastin; 100 μg/ml GRGDTP with 100 pM IL-1β): reduced its stimulation by IL-1β
elastin mRNA level (elastin; 100 μg/ml GRGDTP, without IL-1β): did not affect

interleukin-1beta [IL-1β]
survival of maximum stretch ([1]; 20% elongation, 1 Hz for 1 h, day 5): survived the maximum stretch
time for elongated BATs to recover to original length post stretch ([1]; after maximum stretch (20% elongation, 1 Hz, 1 h)): 8 h
elasticity of BATs ([1]; tested on day 5): increased the elasticity
expression of elastin (elastin; 100 pM IL-1β, BATs, day 5): up-regulated
expression of MMPs 1, 2, 3 (MMPs 1, 2, 3): up-regulated
expression of Collagen I (Collagen I): down-regulated
modulus of BATs [2]: reduced the modulus
reduction of β-actin message (β-actin [3]; 2D cultures): more than 50%
reduction of β-actin message (β-actin [3]; 3D cultures (BATs)): more than 50%
message level of β-actin (β-actin [3]; 3D cultures, day 3): returned to normal
reduction of cell modulus ([4]; HTIFs from patient one): 62%
reduction of cell modulus ([4]; HTIFs from patient two): 45%
cells with disrupted cytoskeletal structure (β-actin [5]; 2D cultures): about 20%
protein level of β-actin (β-actin [5]; 2D cultures, day 5): mostly recovered
fluorescence intensity of rhodamine-phalloidin staining compared to control (β-actin [5]; 3D bioartificial tendons, day 5): much lower
increase of intercellular space at the perpendicular direction of BATs (β-actin [5]; BATs, days 1 and 3): more than 100%
protein level of β-actin (β-actin [5]; rhodamine-phalloidin staining): down regulated
contraction of BATs [6]: reduced the contraction

— US20070077653A1, “Modulation of cell intrinsic strain to control matrix synthesis, secretion, organization and remodeling” (MEDTRAIN TECHNOLOGIES, LLC, priority 2003, published 2007)
